Test results: ChEMBL document CHEMBL4422673, “Discovery, synthesis and characterization of a series of (1-alkyl-3-methyl-1H-pyrazol-5-yl)-2-(5-aryl-2H-tetrazol-2-yl)acetamides as novel GIRK1/2 potassium channel activators” (Bioorg Med Chem Lett, 2019)
Active and inactive are the calls of the source. No cut-off for these calls is given here.

Columns and labels:
[1] = target: Kir3.1/Kir3.4 (Homo sapiens) (UniProt P48549+P48544); test: Activation of human GIRK1/4 expressed in HEK293 cells co-expressing rat mGlu8 by thallium flux assay relative to control; format: cell-based
[2] = target: T1, Kir3.1/Kir3.4 (Homo sapiens, UniProt P48544+P48549); test: (§1) Activation of human GIRK1/4 expressed in HEK293 cells co-expressing rat mGlu8 by thallium flux assay; format: cell-based
T1 sequence (P48549 whole entry): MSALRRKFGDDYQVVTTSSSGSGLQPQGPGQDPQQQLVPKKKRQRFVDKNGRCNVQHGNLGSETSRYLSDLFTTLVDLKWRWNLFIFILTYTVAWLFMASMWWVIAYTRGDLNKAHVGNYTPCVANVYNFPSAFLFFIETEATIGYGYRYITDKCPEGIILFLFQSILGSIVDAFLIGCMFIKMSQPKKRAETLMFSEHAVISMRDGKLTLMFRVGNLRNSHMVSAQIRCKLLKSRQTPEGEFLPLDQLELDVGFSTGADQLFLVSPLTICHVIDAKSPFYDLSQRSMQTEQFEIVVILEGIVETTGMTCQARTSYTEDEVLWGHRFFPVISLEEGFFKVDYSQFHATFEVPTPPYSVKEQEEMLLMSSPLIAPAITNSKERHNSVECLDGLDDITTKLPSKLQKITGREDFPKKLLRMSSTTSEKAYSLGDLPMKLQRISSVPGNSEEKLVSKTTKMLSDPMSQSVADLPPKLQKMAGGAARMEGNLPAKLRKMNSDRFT
T1 sequence (P48544 whole entry): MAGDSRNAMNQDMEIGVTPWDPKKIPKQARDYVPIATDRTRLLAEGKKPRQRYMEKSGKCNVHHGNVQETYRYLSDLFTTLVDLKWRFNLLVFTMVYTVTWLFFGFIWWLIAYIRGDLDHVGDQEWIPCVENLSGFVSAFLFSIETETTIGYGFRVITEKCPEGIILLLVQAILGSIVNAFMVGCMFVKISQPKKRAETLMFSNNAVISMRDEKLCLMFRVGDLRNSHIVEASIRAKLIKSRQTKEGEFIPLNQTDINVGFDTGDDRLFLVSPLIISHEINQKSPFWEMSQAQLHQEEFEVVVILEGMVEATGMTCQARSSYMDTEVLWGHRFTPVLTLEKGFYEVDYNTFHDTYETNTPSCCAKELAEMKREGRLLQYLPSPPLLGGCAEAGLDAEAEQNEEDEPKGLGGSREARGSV

[3] = target: Kir3.1/Kir3.2 (Homo sapiens) (UniProt P48549+P48051); test: Activation of human GIRK1/2 expressed in HEK293 cells co-expressing rat mGlu8 by thallium flux assay relative to control; format: cell-based
[4] = target: T2, Kir3.1/Kir3.2 (Homo sapiens, UniProt P48051+P48549); test: Activation of human GIRK1/2 expressed in HEK293 cells co-expressing rat mGlu8 by thallium flux assay; format: cell-based
T2 sequence (P48549 whole entry): T1 sequence (P48549 whole entry)
T2 sequence (P48051 whole entry): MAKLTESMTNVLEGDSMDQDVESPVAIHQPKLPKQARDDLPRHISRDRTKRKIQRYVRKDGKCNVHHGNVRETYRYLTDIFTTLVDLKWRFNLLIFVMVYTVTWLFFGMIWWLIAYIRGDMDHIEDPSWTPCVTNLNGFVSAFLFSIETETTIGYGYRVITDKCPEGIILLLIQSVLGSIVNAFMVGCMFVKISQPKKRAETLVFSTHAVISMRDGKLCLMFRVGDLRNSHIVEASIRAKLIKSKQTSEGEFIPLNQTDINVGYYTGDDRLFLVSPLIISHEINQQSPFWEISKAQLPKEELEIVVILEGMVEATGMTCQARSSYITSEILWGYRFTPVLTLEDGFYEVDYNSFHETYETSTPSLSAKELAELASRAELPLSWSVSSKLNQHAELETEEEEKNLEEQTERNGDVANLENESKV

[5] = target: T3, Kir3.1/Kir3.4 (Homo sapiens, UniProt P48549+P48544); test: as §1; format: cell-based; settings: hek293
T3 sequence (P48549 whole entry): T1 sequence (P48549 whole entry)
T3 sequence (P48544 whole entry): T1 sequence (P48544 whole entry)

[6] = Clearance in human liver microsomes
[7] = Stability in mouse plasma; format: ADME, cell-free
[8] = Fraction unbound in human plasma; format: ADME, cell-free
[9] = Clearance in mouse liver microsomes

SMILES	Emax [1]	EC50 [2]	Emax [3]	EC50 [4]	EC50 [5]	CLhep predicted [6]	Stability [7]	Fu [8]	CLhep predicted [9]
Cc1cc(NC(=O)Cn2nnc(-c3ccc(Cl)c(C)c3)n2)n(C2CCCCC2)n1	51%	1510 nM	89%	712 nM	–	–	–	–	–
Cc1cc(NC(=O)Cn2nnc(-c3ccccc3)n2)n(C2CCS(=O)(=O)CC2)n1	inactive	–	> 25%	> 10000 nM	Not Active	–	–	–	–
Cc1cc(NC(=O)Cn2nnc(-c3ccccc3)n2)n(C2CCC(C)(C)CC2)n1	inactive	–	> 19%	> 221 nM	Not Active	–	–	–	–
Cc1cc(NC(=O)Cn2nnc(-c3cccc(C(F)(F)F)c3)n2)n(C2CCCCC2)n1	57%	850 nM	86%	183 nM	–	–	–	–	–
Cc1cc(NC(=O)Cn2ccc(-c3ccccc3)n2)n(C2CCCCC2)n1	49%	998 nM	88%	511 nM	–	–	–	–	–
CC1(c2cc(NC(=O)Cn3nnc(-c4ccccc4)n3)n(C3CCCCC3)n2)CC1	inactive	–	> 10%	> 10000 nM	Not Active	–	–	–	–
Cc1cc(NC(=O)Cn2nnc(-c3ccccc3)n2)n(C(C)C)n1	> 96%	> 4000 nM	107%	556 nM	–	–	–	–	–
Cc1cc(NC(=S)Cn2nnc(-c3ccccc3)n2)n(C2CCCCC2)n1	36%	1260 nM	80%	623 nM	–	18.9 mL/min/kg	Unstable	< 0.06%	–
Cc1cc(NC(=O)Cn2nnc(-c3ccnc(F)c3)n2)n(C2CCCCC2)n1	68%	1340 nM	95%	441 nM	–	–	–	–	–
Cc1cc(NC(=O)Cc2nnc(-c3ccccc3)s2)n(C2CCCCC2)n1	> 21%	> 10000 nM	> 60%	> 3000 nM	–	–	–	–	–
Cc1cc(NC(=O)Cn2nnc(-c3ccccc3)n2)n(C2CCC(F)(F)CC2)n1	52%	383 nM	68%	84 nM	–	15.9 mL/min/kg	Unstable	1.5%	80 mL/min/kg
CC1CC1c1cc(NC(=O)Cn2nnc(-c3ccccc3)n2)n(C2CCCCC2)n1 (stereo not given)	> 19%	> 10000 nM	78%	843 nM	–	–	–	–	–
Cc1cc(NC(=O)Cn2nnc(-c3ccccc3)n2)n(C2CCOCC2)n1	109%	2040 nM	115%	435 nM	–	–	–	–	–
Cc1cc(NC(=O)Cc2ccc(-c3ccc(Cl)c(Cl)c3)cc2)n(C2CCCCC2)n1	11%	4350 nM	49%	4470 nM	–	–	–	–	–
Cc1cccc(-c2nnn(CC(=O)Nc3cc(C)nn3C3CCCCC3)n2)c1	63%	435 nM	93%	129 nM	–	–	–	–	–
Cc1cc(NC(=O)Cc2ccc(-c3ccccc3)cc2)n(C2CCCCC2)n1	20%	1820 nM	69%	1660 nM	–	–	–	–	–
COc1cccc(-c2nnn(CC(=O)Nc3cc(C)nn3C3CCCCC3)n2)c1	40%	299 nM	76%	117 nM	–	–	–	–	–
Cc1cc(NC(=O)Cn2nnc(-c3ccc(C(F)(F)F)cc3)n2)n(C2CCCCC2)n1	50%	448 nM	94%	241 nM	–	–	–	–	–
O=C(Cn1nnc(-c2ccccc2)n1)NC1CC2CCC1C2 (stereo not given)	7%	2760 nM	13%	1980 nM	–	–	–	–	–
Cc1cc(NC(=O)Cn2nnc(C3CC3)n2)n(C2CCCCC2)n1	> 25%	> 10000 nM	> 68%	> 3000 nM	–	–	–	–	–
Cc1ccc(-c2nnn(CC(=O)Nc3cc(C)nn3C3CCCCC3)n2)cc1	64%	408 nM	86%	111 nM	–	–	–	–	–

SMILES	Emax [1]	EC50 [2]	Emax [3]	EC50 [4]	EC50 [5]	CLhep predicted [6]	Stability [7]	Fu [8]	CLhep predicted [9]
Cc1cc(NC(=O)Cn2nnc(-c3ccccc3F)n2)n(C2CCCCC2)n1	60%	447 nM	88%	187 nM	–	–	–	–	–
Cc1cc(NC(=O)Cn2nnc(-c3ccccc3)n2)n(C2CCCC2)n1	84%	612 nM	105%	163 nM	–	–	–	–	–
Cc1cc(NC(=O)Cc2coc(-c3ccccc3)n2)n(C2CCCCC2)n1	22%	3980 nM	> 69%	> 11000 nM	–	–	–	–	–
Cc1cc(NC(=O)Cn2nnc(-c3ccccn3)n2)n(C2CCCCC2)n1	> 41%	> 33000 nM	81%	14600 nM	–	–	–	–	–
Cc1cc(NC(=O)Cn2cc(-c3ccccc3)cn2)n(C2CCCCC2)n1	52%	348 nM	72%	65 nM	–	–	–	–	–
Cc1cc(NC(=O)Cc2cccc(-c3ccccc3)c2)n(C2CCCCC2)n1	> 51%	> 4000 nM	72%	370 nM	–	–	–	–	–
Cc1cc(NC(=O)Cn2nnc(-c3ccccc3)n2)n(-c2ccccc2)n1	25%	4090 nM	66%	3020 nM	–	–	–	–	–
Cc1cc(NC(=O)Cn2nnc(-c3cccc(F)n3)n2)n(C2CCCCC2)n1	> 38%	> 10000 nM	> 83%	> 3000 nM	–	–	–	–	–
Cc1cc(NC(=O)Cn2nnc(-c3cccnc3)n2)n(C2CCCCC2)n1	80%	4910 nM	96%	1930 nM	–	–	–	–	–
COc1ccc(-c2nnn(CC(=O)Nc3cc(C)nn3C3CCCCC3)n2)cc1	65%	779 nM	90%	175 nM	–	–	–	–	–
Cc1cc(NC(=O)Cn2nnc(-c3ccccc3)n2)n(C2CC2)n1	> 39%	> 10000 nM	> 78%	> 5000 nM	–	–	–	–	–
Cc1cc(NC(=O)Cn2nnc(-c3ccc(F)cc3)n2)n(C2CCCCC2)n1	74%	634 nM	92%	180 nM	–	–	–	–	–
Cc1cc(NC(=O)Cc2ncc(-c3ccccc3)o2)n(C2CCCCC2)n1	27%	1130 nM	72%	631 nM	–	–	–	–	–
Cc1cc(NC(=O)Cc2ccc(-c3ccccc3)cn2)n(C2CCCCC2)n1	inactive	–	36%	1520 nM	Not Active	–	–	–	–
O=C(Cn1nnc(-c2ccccc2)n1)Nc1cc(C2CC2)nn1C1CCCCC1	15%	659 nM	45%	271 nM	–	–	–	–	–
Cc1cc(NC(=O)Cn2nnc(-c3ccccc3)n2)n(Cc2ccccc2)n1	48%	848 nM	74%	495 nM	–	–	–	–	–
Cc1cc(NC(=O)Cn2nnc(-c3cc(Cl)cc(Cl)c3)n2)n(C2CCCCC2)n1	51%	2120 nM	82%	980 nM	–	–	–	–	–
CCC(C)n1nc(C)cc1NC(=O)Cn1nnc(-c2ccccc2)n1 (stereo not given)	> 20%	> 10000 nM	> 69%	> 5000 nM	–	–	–	–	–
Cc1cc(NC(=O)Cn2nnc(-c3ccccc3)n2)n(CC(F)(F)F)n1	> 97%	> 10000 nM	> 105%	> 6000 nM	–	–	–	–	–
Cc1cc(NC(=O)Cc2csc(-c3ccccc3)n2)n(C2CCCCC2)n1	> 18%	> 3000 nM	44%	1330 nM	–	–	–	–	–
Cc1cc(NC(=O)Cn2nnc(-c3cccc(C#N)c3)n2)n(C2CCCCC2)n1	55%	619 nM	80%	183 nM	–	–	–	–	–
